Data on 35 compounds can be found in patent US20080221086A1, “Novel Inhibitors of Glutaminyl Cyclase” (PROBIODRUG AG, priority 2006, published 2008).

Sequence of hQC (Q16769 29-361): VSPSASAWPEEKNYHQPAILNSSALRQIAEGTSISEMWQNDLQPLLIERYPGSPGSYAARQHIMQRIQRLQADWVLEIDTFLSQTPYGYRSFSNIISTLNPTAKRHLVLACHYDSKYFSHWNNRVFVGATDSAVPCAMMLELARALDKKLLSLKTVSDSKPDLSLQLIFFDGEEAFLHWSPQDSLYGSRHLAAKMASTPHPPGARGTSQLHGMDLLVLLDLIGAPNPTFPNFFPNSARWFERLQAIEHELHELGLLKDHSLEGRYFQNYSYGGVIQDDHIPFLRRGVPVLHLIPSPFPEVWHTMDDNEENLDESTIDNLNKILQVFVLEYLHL

The first test addresses hQC (Homo sapiens, UniProt Q16769). Briefly: Fluorometric assay of glutaminyl cyclase (QC) inhibition, H-Gln-βNA or H-Gln-AMC substrate. As to conditions: compound from preparative synthesis, purified by chromatography; fluorescent assay; read-out: IC50 hQC. The format is biochemical. Put shortly: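 Ki values were obtained by fitting progress curves to a competitive-inhibition equation, and the rapid screen used 4 mM inhibitor with substrate at 1 KM. Both readouts coupled pyroglutamyl aminopeptidase at pH 8.0 and 30° C: H-Gln-βNA at 0.2 mM (ex/em 320/410 nm) or H-Gln-AMC (380/460 nm).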
For `O=C1N/C(=N\CCc2cccs2)C(c2ccccc2Cl)N1CCCn1ccnc1` (centres unmarked) [Compound 43, 5-(2-Chloro-phenyl)-1-(3-imidazol-1-yl-propyl)-4-(2-thiophen-2-yl-ethylimino)-imidazolidin-2-one], the 50% inhibitory concentration (IC50) was found to be 0.858 µM.
The same measure, in the same setting: the value for `O=C1N/C(=N\C2CCCC2)C(c2ccc(Cl)cc2)N1c1ccc2[nH]cnc2c1` (centres unmarked) [Compound 211, 1-(1H-Benzoimidazol-5-yl)-5-(4-chloro-phenyl)-4-cyclopentylimino-imidazolidin-2-one] was 0.0377 µM; that for `O=C1N/C(=N/Cc2ccccc2)C(c2ccc(Cl)cc2)N1c1ccc2[nH]cnc2c1` (centres unmarked) [Compound 162, 1-(1H-Benzoimidazol-5-yl)-4-benzylimino-5-(4-chloro-phenyl)-imidazolidin-2-one] was 0.0195 µM.

The test is the same for the next values; noted with them: read-out: IC50.
For the compound `O=C1N/C(=N\CCc2cccs2)C(c2ccccc2F)N1CCCn1ccnc1` (centres unmarked) [Compound 44, 5-(2-Fluoro-phenyl)-1-(3-imidazol-1-yl-propyl)-4-(2-thiophen-2-yl-ethylimino)-imidazolidin-2-one], the 50% inhibitory concentration (IC50) stood at 5.8 µM.
Still for that read-out and setting: the value for `CCCC/N=C1/NC(=O)N(CCCn2ccnc2)C1c1cc(F)cc(F)c1` (centres unmarked) [Compound 37, 4-Butylimino-5-(3,5-difluoro-phenyl)-1-(3-imidazol-1-ylpropyl)-imidazolidin-2-one] was 5.8 µM; that for `Cc1cccc(C2/C(=N/CCCN(C)C)NC(=O)N2c2ccc3[nH]cnc3c2)c1` (centres unmarked) [Compound 253, 4-(3-(Dimethylamino)propylimino)-1-(1H-benzo[d]imidazol-5-yl)-5-m-tolylimidazolidin-2-one] was 9.4 µM; that for `O=C1N/C(=N\Cc2ccc(Cl)cc2)C(c2ccccc2Cl)N1CCCn1ccnc1` (centres unmarked) [Compound 21] was 7.6 µM.
On the same count and under the same terms, the value for `O=C(C/N=C1/NC(=O)N(c2ccc3[nH]cnc3c2)C1c1cccc(Br)c1)N1CCSCC1` (centres unmarked) [Compound 342, 1-(1H-Benzoimidazol-5-yl)-5-(3-bromo-phenyl)-4-2-oxo-2-thiomorpholin-4-yl-ethylimino-imidazolidin-2-one] was 0.4 µM; that for `Cc1ccc2occ(C3/C(=N/CCCN4CCCC4=O)NC(=O)N3c3ccc4[nH]cnc4c3)c(=O)c2c1` (centres unmarked) [Compound 267, 1-(1H-Benzoimidazol-5-yl)-5-(6-methyl-4-oxo-4H-chromen-3-yl)-4-3-(2-oxo-pyrrolidin-1-yl)-propylimino-imidazolidin-2-one] was 4.9 µM.
On the same count and under the same terms, the value for `Cc1ccc2occ(C3/C(=N/CCCc4ccccc4)NC(=S)N3c3ccc4[nH]cnc4c3)c(=O)c2c1` (centres unmarked) [Compound 313, 3-{3-(1H-Benzoimidazol-5-yl)-5-3-phenyl-propylimino-2-thioxo-imidazolidin-4-yl}-6-methyl-chromen-4-one] was 3.1 µM; that for `S=C1N/C(=N/Cc2ccccc2)C(c2ccc(Br)cc2)N1c1ccc2[nH]cnc2c1` (centres unmarked) [Compound 133, 1-(1H-Benzoimidazol-5-yl)-4-benzylimino-5-(4-bromo-phenyl)-imidazolidine-2-thione] was 5.8 µM.
For `O=C1CCCN1CCC/N=C1/NC(=O)N(c2ccc3[nH]cnc3c2)C1c1cc2ccccc2s1` (centres unmarked) [Compound 166, 5-Benzobthiophen-2-yl-1-(1H-benzoimidazol-5-yl)-4-3-(2-oxo-pyrrolidin-1-yl)-propylimino-imidazolidin-2-one], the IC50 is 0.4 µM.
With `O=C1N/C(=N/CCc2cccs2)C(c2cc(F)cc(F)c2)N1CCCn1ccnc1` (centres unmarked) [Compound 41, 5-(3,5-Difluoro-phenyl)-1-(3-imidazol-1-yl-propyl)-4-2-thiophen-2-yl-ethylimino-imidazolidin-2-one], the IC50 was 3.1 µM.
Consider `O=C1NC(=Nc2ccc(Oc3ccccc3)cc2)C(CO)N1CCCn1ccnc1` (centres unmarked) [Compound 102, 5-Hydroxymethyl-1-(3-imidazol-1-yl-propyl)-4-4-phenoxy-phenylimino-imidazolidin-2-one], for which the IC50 was 8.5 µM.
Same read-out and setting: the value for `O=C1CCCN1CCC/N=C1/NC(=O)N(c2ccc3[nH]cnc3c2)C1c1ccc(Cl)c(F)c1` (centres unmarked) [Compound 323, 1-(1H-Benzoimidazol-5-yl)-5-(4-chloro-3-fluoro-phenyl)-4-3-(2-oxo-pyrrolidin-1-yl)-propylimino-imidazolidin-2-one] was 0.4 µM; that for `O=C1N/C(=N/C2CC2)C(C2CCC=CO2)N1CCCn1ccnc1` (centres unmarked) [Compound 1, 4-Cyclopropylimino-5-(3,4-dihydro-2H-pyran-2-yl)-1-(3-imidazol-1-yl-propyl)-imidazolidin-2-one] was 8.6 µM; that for `Cc1cccc(C2/C(=N\Cn3nnc4ccccc43)NC(=O)N2c2ccc3[nH]cnc3c2)c1` (centres unmarked) [Compound 324, 1-(1H-Benzoimidazol-5-yl)-4-benzotriazol-1-ylmethylimino-5-m-tolyl-imidazolidin-2-one] was 3.1 µM.
Still for that read-out and setting: the value for `O=C1NC(=NCCC(c2ccccc2)c2ccccc2)C(c2ccc(Cl)c(F)c2)N1CCCn1ccnc1` (centres unmarked) [Compound 109, 5-(4-Chloro-3-fluoro-phenyl)-4-3,3-diphenyl-propylimino-1-(3-imidazol-1-yl-propyl)-imidazolidin-2-one] was 7.6 µM; that for `CC1/C(=N\CCc2c[nH]c3ccccc23)NC(=O)N1CCCn1ccnc1` (centres unmarked) [Compound 48, 1-(3-Imidazol-1-yl-propyl)-4-2-(1H-indol-3-yl)-ethylimino-5-methyl-imidazolidin-2-one] was 7.6 µM; that for `O=C1N/C(=N/Cc2ccccc2)C(c2ccccc2)N1CCCn1ccnc1` (centres unmarked) [Compound 92, 4-Benzylimino-1-(3-imidazol-1-yl-propyl)-5-phenyl-imidazolidin-2-one] was 8.5 µM.
As to `O=C1N/C(=N/CCc2c[nH]c3ccccc23)C(c2cccc(F)c2)N1CCCn1ccnc1` (centres unmarked) [Compound 62, 5-(3-Fluoro-phenyl)-1-(3-imidazol-1-yl-propyl)-4-2-(1H-indol-3-yl)-ethylimino-imidazolidin-2-one], the 50% inhibitory concentration (IC50) is 3.1 µM.
In the case of `CC1/C(=N/C(c2ccccc2)c2ccccc2)NC(=O)N1CCCn1ccnc1` (centres unmarked) [Compound 80, 4-Benzhydrylimino-1-(3-imidazol-1-yl-propyl)-5-methyl-imidazolidin-2-one], the IC50 is 9.4 µM.
As for `CCCCC1C(=NC(C)c2ccccc2)NC(=O)N1CCCn1ccnc1` (centres unmarked) [Compound 11, 5-Butyl-1-(3-imidazol-1-yl-propyl)-4-1-phenyl-ethylimino-imidazolidin-2-one], the half-maximal inhibitory concentration (IC50) stood at 8.7 µM.
The same measure, in the same setting: the value for `O=C(C/N=C1\NC(=O)N(c2ccc3[nH]cnc3c2)C1c1ccccc1Cl)N1CCSCC1` (centres unmarked) [Compound 135, 1-(1H-Benzoimidazol-5-yl)-5-(2-chloro-phenyl)-4-2-oxo-2-thiomorpholin-4-yl-ethylimino-imidazolidin-2-one] was 5.8 µM.
As to `O=C1N/C(=N/Cn2nnc3ccccc32)C(c2cc3c(cc2Br)OCO3)N1c1ccc2nc[nH]c2c1` (centres unmarked) [Compound 204, 1-(3H-Benzoimidazol-5-yl)-4-benzotriazol-1-ylmethylimino-5-(6-bromo-benzo1,3dioxol-5-yl)-imidazolidin-2-one], the IC50 was found to be 0.4 µM.
Still for that read-out and setting: the value for `O=C(C/N=C1/NC(=S)N(c2ccc3[nH]cnc3c2)C1c1ccnc2ccccc12)N1CCC(O)CC1` (centres unmarked) [Compound 270, 2-(1-(1H-benzo[d]imidazol-5-yl)-5-(quinolin-4-yl)-2-thioxoimidazolidin-4-ylideneamino)-1-(4-hydroxypiperidin-1-yl)ethanone] was 1.3 µM; that for `O=C1N/C(=N\CCc2cccs2)C(c2ccccc2Cl)N1CCCn1ccnc1` (centres unmarked) [Compound 43, 5-(2-Chloro-phenyl)-1-(3-imidazol-1-yl-propyl)-4-(2-thiophen-2-yl-ethylimino)-imidazolidin-2-one] was 0.04 µM; that for `O=C1N/C(=N/CCCc2ccccc2)C(c2cc(Br)cc(Br)c2)N1c1ccc2[nH]cnc2c1` (centres unmarked) [Compound 303, 1-(1H-Benzoimidazol-5-yl)-5-(3,5-dibromo-phenyl)-4-3-phenyl-propylimino-imidazolidin-2-one] was 0.004 µM.
Still for that read-out and setting: the value for `O=C1CCCN1CCCN=C1NC(=S)N(c2ccc3[nH]cnc3c2)C1c1ccc2nsnc2c1` (centres unmarked) [Compound 231, 1-{3-1-(1H-Benzoimidazol-5-yl)-5-benzo[c][1,2,5]thiadiazol-5-yl-2-thioxo-imidazolidin-(4Z)-ylideneamino-propyl}-pyrrolidin-2-one] was 4 µM; that for `CCc1ccccc1C1/C(=N/C2CCCc3ccccc32)NC(=S)N1c1ccc2[nH]cnc2c1` (centres unmarked) [Compound 136, 1-(1H-Benzoimidazol-5-yl)-5-(2-ethyl-phenyl)-4-1,2,3,4-tetrahydro-naphthalen-1-yliminoimidazolidine-2-thione] was 6.7 µM; that for `O=C1CCCN1CCCN=C1NC(=O)N(c2ccc3[nH]cnc3c2)C1c1cccc2cccnc12` (centres unmarked) [Compound 215, 1-(1H-Benzoimidazol-5-yl)-4-3-(2-oxo-pyrrolidin-1-yl)-propylimino-5-quinolin-8-yl-imidazolidin-2-one] was 6.7 µM.
`O=C1N/C(=N/CCc2cccs2)C(C2CCC=CO2)N1CCCn1ccnc1` (centres unmarked) [Compound 39, 5-(3,4-Dihydro-2H-pyran-2-yl)-1-(3-imidazol-1-yl-propyl)-4-2-thiophen-2-yl-ethylimino-imidazolidin-2-one]: the half-inhibitory concentration (IC50) turned out to be 7.6 µM.
Consider `O=C1N/C(=N/Cc2ccccc2)C(c2ccc[nH]2)N1CCCn1ccnc1` (centres unmarked) [Compound 93, 4-Benzylimino-1-(3-imidazol-1-yl-propyl)-5-(1H-pyrrol-2-yl)-imidazolidin-2-one], for which the 50% inhibitory concentration (IC50) was 9.4 µM.
On the same count and under the same terms, the value for `O=C1N/C(=N\CCC(c2ccccc2)c2ccccc2)C(c2cc(F)cc(F)c2)N1CCCn1ccnc1` (centres unmarked) [Compound 108, 5-(3,5-Dihydro-phenyl)-4-3,3-diphenyl-propylimino-1-(3-imidazol-1-yl-propyl)-imidazolidin-2-one] was 6.7 µM; that for `O=C1N/C(=N\C2CCCC2)C(c2ccc(Cl)cc2)N1c1ccc2[nH]cnc2c1` (centres unmarked) [Compound 211, 1-(1H-Benzoimidazol-5-yl)-5-(4-chloro-phenyl)-4-cyclopentylimino-imidazolidin-2-one] was 0.004 µM; that for `Cc1cccc(C2/C(=N\Cn3nnc4ccccc43)NC(=O)N2c2ccc3nc[nH]c3c2)n1` (centres unmarked) [Compound 189, 1-(3H-Benzoimidazol-5-yl)-4-benzotriazol-1-ylmethylimino-5-(6-methyl-pyridin-2-yl)-imidazolidin-2-one] was 4 µM.
The same measure, in the same setting: the value for `O=C1N/C(=N/Cc2ccccc2)C(c2ccc(Cl)cc2)N1c1ccc2[nH]cnc2c1` (centres unmarked) [Compound 162, 1-(1H-Benzoimidazol-5-yl)-4-benzylimino-5-(4-chloro-phenyl)-imidazolidin-2-one] was 0.004 µM; that for `Oc1cccc(C2/C(=N/c3cc(Cl)ccc3Cl)NC(=S)N2c2ccc3[nH]cnc3c2)c1` (centres unmarked) [Compound 214, 1-(1H-Benzoimidazol-5-yl)-4-2,5-dichloro-phenylimino-5-(3-hydroxy-phenyl)-imidazolidine-2-thione] was 7.6 µM.
